# In BindingDB's records for PubMed 7965765 (University of Cincinnati, 1994):
# Values joined by “and” are separate entries in the source; they are usually repeats but may differ in a detail not shown here. Equal entries are not always repeated.
# Target: T1, Thromboxane A2 receptor (Homo sapiens, UniProt P21731)
# T1 sequence (P21731 whole entry): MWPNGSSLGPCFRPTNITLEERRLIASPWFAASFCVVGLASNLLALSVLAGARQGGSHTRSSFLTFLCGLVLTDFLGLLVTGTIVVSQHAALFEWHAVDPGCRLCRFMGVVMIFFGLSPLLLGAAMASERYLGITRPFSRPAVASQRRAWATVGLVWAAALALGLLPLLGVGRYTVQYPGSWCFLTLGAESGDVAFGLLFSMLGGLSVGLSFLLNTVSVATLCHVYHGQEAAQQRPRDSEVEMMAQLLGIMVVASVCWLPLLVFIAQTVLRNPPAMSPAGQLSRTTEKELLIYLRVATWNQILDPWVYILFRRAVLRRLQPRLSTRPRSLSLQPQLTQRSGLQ
row,SMILES,Ki
1,O=C(O)CCC/C=C\C[C@@H]1[C@@H](/C=C/[C@@H](O)COc2ccc(I)cc2)[C@H]2CC[C@@H]1O2 [CAS_128719-90-4],3.7 nM and 1.4 nM
2,CCCCCC(O)C=CC1C2COC(C2)C1CC=CCCCC(=O)O (centres undefined) [NSC_114865],64 nM and 44 nM and 38 nM
3,CC1(C)C2CC(NCC(O)Cc3ccc(O)c(I)c3)C(CC=CCCCC(=O)O)C1C2 (centres undefined) [NSC_122979],117 nM and 400 nM and 121 nM
4,CCCCC[C@H](O)/C=C/C1[C@@H](C/C=C\CCCC(=O)O)[C@H]2CO[C@@H]1C2 (some centres undefined) [U46619],77 nM and 82 nM and 50 nM
